Assay results as given in patent publication US11072628B2, “Nucleoside analogues for the treatment of parasitic infections” (UNIVERSITEIT GENT, priority 2017, dated 2021).
Like-named read-outs stand apart in the source and are kept apart here.

Key:
[1] = system: T. cruzi Tulahuen CL2 β galactosidase strain; experiment: T. cruzi Tulahuen CL2 β galactosidase strain on MRC-5SV2 cells (CPRG); format: cell-based, Trypanosoma cruzi; conditions: Trypanosoma cruzi, TULAHUEN, MRC-5 SV2
Description: All cultures and assays were conducted at 37° C./5% CO2. […] The results were expressed as % reduction in parasite burdens compared to control wells from which an EC50 was calculated.

[2] = system: T. b. rhodesiense STIB-900; experiment: In vitro drug susceptibility, T. b. rhodesiense STIB-900 (resazurin); format: cell-based, Trypanosoma brucei rhodesiense; conditions: Trypanosoma brucei, RHODESIENSE
Description: (§1) All trypanosome strains were cultured in the standard HMI-9 medium supplemented with 10% fetal bovine serum (FBS) at 37° C. in a 5% CO2 atmosphere.

[3] = in vitro; conditions: human
Description: Cytotoxicity was assayed against MRC-5 fibroblasts. Results are depicted in Tables 4 and 5.

[4] = system: T. brucei Squib 427; experiment: In vitro drug susceptibility, T. brucei Squib 427 (resazurin); format: cell-based, Trypanosoma brucei brucei; conditions: for EC50: Trypanosoma brucei
Description: as §1

[5] = Table 5, average of 2-4 independent replicates
[6] = Table 2, average of 2-3 independent replicates
[7] = MRC-5 fibroblasts, MRC-5 EC50, Table 1, cytotoxicity
[8] = MRC-5 fibroblasts, MRC-5 EC50, Table 2, cytotoxicity
[9] = read-out: T. brucei brucei EC50, Table 1, average of 2-4 independent determinations
[10] = MRC-5 fibroblasts, MRC-5 EC50, Table 4, cytotoxicity
[11] = MRC-5 fibroblasts, MRC-5 EC50, Table 5, cytotoxicity
[12] = read-out: T.b. brucei EC50, Table 4, average of 2-6 independent determinations
[13] = Table 1, average of 2-4 independent determinations, read-out: T. brucei rhod. EC50
[14] = Table 1, average of 2-4 independent determinations, read-out: T. brucei brucei EC50

Row | SMILES | EC50 [1, 5] | EC50 [1, 6] | EC50 ([2]; read-out: T. brucei rhod. EC50) | EC50 [4, 9] | EC50 ([2]; read-out: T.b. rhod. EC50) | EC50 [3, 10] | EC50 [3, 11] | EC50 [4, 12] | further results
1 | Nc1ncnc2c1c(Br)cn2[C@@H]1O[C@H](CO)[C@@H](O)[C@H]1O [TH1003] | 390 nM |  |  |  |  |  |  |  | EC50 ([2]; Table 4, average of 2-6 independent determinations, read-out: T.b. rhod. EC50): 120 nM; EC50 ([3]; MRC-5 EC50): 33300 nM; EC50 ([4]; Table 4, average of 2-6 independent determinations, read-out: T.b. brucei EC50): 1240 nM
2 | Nc1ncnc2c1ccn2[C@@H]1O[C@H](CO)C[C@@H]1O [FH10650, 4-amino-N7-(2′-arabino-3′-deoxy-β-D-ribofuranosyl)-pyrrolo[2,3-d]pyrimidine] |  | > 64000 nM | 600 nM | 6620 nM |  |  |  |  | EC50 [3, 7]: > 64000 nM; EC50 [3, 8]: > 64000 nM
3 | COc1ncnc2c1c(Cl)cn2[C@@H]1O[C@H](CO)[C@@H](O)[C@H]1O [FH8446, 4-methoxy-5-chloro-N7-(β-D-ribfuranosyl)-pyrrolo[2,3-d]pyrimidine] | 12700 nM |  |  |  | 40 nM | 48000 nM | 48000 nM | 160 nM | 
4 | COc1ncnc2c1c(Br)cn2[C@@H]1O[C@H](CO)[C@@H](O)[C@H]1O [FH9528, 4-methoxy-5-bromo-(N7-β-D-ribofuranosyl)-pyrrolo[2,3-d]pyrimidine] | 24100 nM |  |  |  | 40 nM | > 64000 nM | > 64000 nM | 190 nM | 
5 | Nc1ncnc2c1c(Br)cn2[C@@H]1O[C@H](CO)C[C@@H]1O [FH10628, 4-amino-5-bromo-N7-(2′-arabino-3′-deoxy-β-D-ribofuranosyl)-pyrrolo[2,3-d]pyrimidine] |  | 1470 nM | 30 nM | 130 nM |  |  |  |  | EC50 [3, 7]: 45600 nM; EC50 [3, 8]: 45600 nM
6 | Nc1ncnc2c1c(Cl)cn2[C@@H]1O[C@H](CO)C[C@H]1O [FH8470] |  | 50 nM | 0.4 nM | 2 nM |  |  |  |  | 
7 | Nc1ncnc2c1c(-c1cccc(Cl)n1)cn2[C@@H]1O[C@H](CO)[C@@H](O)[C@H]1O [MS1034, 4-amino-5-(6-chloro-pyrid-2-yl)-N7-(β-D-ribofuranosyl)-pyrrolo[2,3-d]pyrimidine] | > 64000 nM |  |  |  | 620 nM | > 64000 nM | > 64000 nM | 1750 nM | 
8 | C=Cc1cn([C@@H]2O[C@H](CO)C[C@H]2O)c2ncnc(N)c12 [FH10659, 4-amino-5-vinyl-N7-(3′-deoxy-β-D-ribfuranosyl)-pyrrolo[2,3-d]pyrimidine] |  | 9440 nM | 5 nM | 40 nM |  |  |  |  | 
9 | CC(C)(C)[Si](C)(C)O[C@@H]1C[C@@H](CO)O[C@H]1n1cc(Br)c2c(N)ncnc21 [FH9552, 4-amino-5-bromo-N7-(2′-O-t-butyldimethylsilyl-3′-deoxy-β-D-ribofuranosyl)-pyrrolo[2,3-d]pyrimidine] |  |  |  |  |  |  |  |  | EC50 [2, 13]: 270 nM; EC50 [3]: > 64000 nM; EC50 [4, 14]: 630 nM
10 | CCOc1ncnc2c1c(Cl)cn2[C@@H]1O[C@H](CO)[C@@H](O)[C@H]1O [FH9529, 4-ethoxy-5-chloro-N7-(β-D-ribfuranosyl)-pyrrolo[2,3-d]pyrimidine] | 6290 nM |  |  |  | 60 nM | 48500 nM | 48500 nM | 120 nM | 
11 | CCCCOc1ncnc2c1c(Cl)cn2[C@@H]1O[C@H](CO)[C@@H](O)[C@H]1O [FH9530, 4-n-butoxy-5-chloro-N7-(β-D-ribofuranosyl)-pyrrolo[2,3-d]pyrimidine] | 450 nM |  |  |  | 40 nM | 1320 nM | 1320 nM | 70 nM | 
12 | Nc1ncnc2c1c(I)cn2[C@@H]1O[C@H](CO)C[C@H]1O [FH8496, 4-amino-5-iodo-N7-(3′-deoxy-β-D-ribfuranosyl)-pyrrolo[2,3-d]pyrimidine] |  | 30 nM | 1 nM | 10 nM |  |  |  |  | 
13 | O=C(Cn1ccnc1[N+](=O)[O-])NCc1ccccc1 [Benznidazole, reference compound] |  | 2400 nM |  |  |  |  |  |  | 
14 | CC(C)Oc1ncnc2c1c(Cl)cn2[C@@H]1O[C@H](CO)[C@@H](O)[C@H]1O [FH9531, 4-isopropoxy-5-chloro-N7-(β-D-ribfuranosyl)-pyrrolo[2,3-d]pyrimidine] | 22700 nM |  |  |  | 100 nM | > 64000 nM | > 64000 nM | 90 nM | 
15 | Nc1ncnc2c1c(-c1ccc(F)cn1)cn2[C@@H]1O[C@H](CO)[C@@H](O)[C@H]1O [MS1037, 4-amino-5-(5-fluoro-pyrid-2-yl)-N7-(β-D-ribofuranosyl)-pyrrolo[2,3-d]pyrimidine] | 31900 nM |  |  |  | 1690 nM | > 64000 nM | > 64000 nM | 4770 nM | 
16 | Cc1ccc(-c2cn([C@@H]3O[C@H](CO)C[C@H]3O)c3ncnc(N)c23)cc1 [FH8481, 4-amino-5-(4-methylphenyl)-N7-(3′-deoxy-β-D-ribofuranosyl)-pyrrolo[2,3-d]pyrimidine] |  | 460 nM | 18400 nM | 33200 nM |  |  |  |  | EC50 [3, 7]: 21000 nM; EC50 [3, 8]: 21000 nM
17 | CN(C)c1ncnc2c1c(Br)cn2[C@@H]1O[C@H](CO)C[C@H]1O [FH8522, 4-dimethylamino-5-bromo-N7-(3′-deoxy-β-D-ribofuranosyl)-pyrrolo[2,3-d]pyrimidine] |  | 20900 nM | 790 nM | 1880 nM |  |  |  |  | EC50 [3, 7]: > 64000 nM; EC50 [3, 8]: > 64000 nM
18 | Nc1ncnc2c1c(-c1cccnc1)cn2[C@@H]1O[C@H](CO)[C@@H](O)[C@H]1O [FH4185, 4-amino-5-(pyrid-3-yl)-N7-(β-D-ribofuranosyl)-pyrrolo[2,3-d]pyrimidine] | 15400 nM |  |  |  |  | > 64000 nM | > 64000 nM | > 64000 nM | anti-trypanosomal activity against T. brucei, in words [4]: no discernible trypanocidal effects
19 | CCCOc1ncnc2c1c(Cl)cn2[C@@H]1O[C@H](CO)[C@@H](O)[C@H]1O [FH9532, 4-n-propoxy-5-chloro-N7-(β-D-ribfuranosyl)-pyrrolo[2,3-d]pyrimidine] | 1040 nM |  |  |  | 80 nM | 2810 nM | 2810 nM | 80 nM | 
20 | CC(C)(C)[Si](C)(C)OC[C@@H]1C[C@@H](O)[C@H](n2cc(Br)c3c(N)ncnc32)O1 [FH8471, 4-Amino-5-Bromo-N7-(3′-Deoxy-5′-O-t-Butyl-Dimethylsilyl)-β-D-Ribofuranosyl-Pyrrolo[2,3-d]pyrimidine] |  |  |  |  |  |  |  |  | EC50 [2, 13]: 80 nM; EC50 [3]: 5310 nM; EC50 [4, 14]: 1210 nM
21 | Nc1ncnc2c1c(Br)cn2[C@@H]1O[C@H](CO)C[C@H]1O [FH7429_U, 4-amino-5-bromo-N7-(3′-deoxy-β-D-ribofuranosyl)-pyrrolo[2,3-d]pyrimidine] |  | 20 nM | < 0.5 nM | 2 nM |  |  |  |  | EC50 [3, 7]: 16100 nM; EC50 [3, 8]: 16100 nM
22 | Nc1ncnc2c1c(F)cn2[C@@H]1O[C@H](CO)C[C@H]1O [FH8517, 4-amino-5-fluoro-N7-(3′-deoxy-β-D-ribofuranosyl)-pyrrolo[2,3-d]pyrimidine] |  | 1220 nM | 0.3 nM | 2 nM |  |  |  |  | EC50 [3, 7]: 3600 nM; EC50 [3, 8]: 3600 nM
23 | Nc1ccnc2c1c(I)cn2[C@@H]1O[C@H](CO)[C@@H](O)[C@H]1O [FH5319, 3-iodo-4-amino-N1-(β-D-ribofuranosyl)-pyrrolo[2,3-b]pyridine] | 40 nM |  |  |  | > 64000 nM | > 64000 nM | > 64000 nM | 400 nM | 
24 | Nc1ncnc2c1c(-c1ccc(Cl)cc1Cl)cn2[C@@H]1O[C@H](CO)C[C@H]1O [FH9581, 4-amino-5-(2,4-dichlorophenyl)-N7-(3′-deoxy-β-D-ribofuranosyl)-pyrrolo[2,3-d]pyrimidine] |  | 500 nM | 7300 nM | 19600 nM |  |  |  |  | EC50 [3, 7]: 19600 nM; EC50 [3, 8]: 19600 nM
